# Like-named read-outs stand apart in the source and are kept apart here.
# How the values were obtained:
# [1] = Biodistribution, PC-3 xenograft mice; assay type: in vivo, NOD SCID mice; conditions: female, NOD SCID, intravenous, total radioactivity; for tissue uptake at 7.3 h: Mouse #2, 7.3 h p.i., 1.43 nmol; for tissue uptake at 7.3 h / tissue uptake at 4 h / tissue uptake at 25.1 h: single tracer, PC-3 xenograft; for tissue uptake at 4 h: Mouse #3, 4 h p.i., 1.49 nmol; for tissue uptake at 25.1 h: Mouse #1, 25.1 h p.i., 1.34 nmol
# Excerpt: (§1) Tumor growth and body weight were monitored daily. […]
# (§2) 3.6.1 Biodistribution studies
# (§3) xenograft-bearing female NOD SCID mice. […]
# [2] = test system: PC-3 xenograft; test: Biodistribution, PC-3 xenograft mice; assay type: in vivo, NOD SCID mice; conditions: single tracer, PC-3 xenograft
# Excerpt: as §1, §2, §3
# [3] = test system: PC-3 xenografts; design: method as in Mansi et al. [37]; conditions: 24 h p.i.; female nude mice; i.v. 10 pmol; n = 4; ref Mansi et al. [37]; cited from earlier work
# [4] = Biodistribution, CHO-K1-GRPR + CHO-K1-PSMA dual xenograft mice; conditions: female, NOD SCID, mouse, intravenous, total radioactivity; for tissue uptake at 24.2 h / tissue uptake at 25.2 h: single tracer; for tissue uptake at 24.2 h / tissue uptake at 25.8 h / tissue uptake at 25.2 h / tissue uptake at 17.6 h: dual xenograft; for tissue uptake at 24.2 h: 24.2 h p.i.; for tissue uptake at 25.8 h: 1 nmol, Mouse #8, 25.8 h p.i., 1.00 nmol; for tissue uptake at 25.8 h / tissue uptake at 17.6 h: dual tracer; for tissue uptake at 25.2 h: 1.08 nmol, Mouse #6, 25.2 h p.i.; for tissue uptake at 17.6 h: 2.69 nmol, Mouse #9, 17.6 h p.i.; for tissue uptake: CHO-K1-GRPR xenograft tumor, Uptake in CHO-K1-GRPR xenografts, range
# Method: Six-to-eight-week-old female immunodeficient mice (NOD SCID) were obtained from the Core facility laboratory animal breeding and husbandry of the Medical University of Vienna, Himberg, Austria. Animals were kept in individually ventilated cages with 12 h light–dark cycle. All experiments were approved by the Federal Ministry of Education, Science and Research, Republic of Austria (2020-0.253.820 and BMBWF-66.009/0122-V/3b/2019) and performed according to the guidelines from the Federation of the European Laboratory Animal Science Associations (FELASA). After an acclimatization period of two weeks, animals were injected with 3 × 10^6 CHO-K1-GRPR cells in the right flank and 3 × 10^6 CHO-K1-PSMA cells in the left flank (3 × 10^6 in 100 µL serum-free medium each). It should be noted that approximately the same passage (±1 passage number) was used for inoculation for both cell lines to ensure similar cell viability, target incidence, and density in vivo. Tracer uptake (and thus target expression) was confirmed three days prior to inoculation in cell uptake experiments. […] Tumor growth and body weight were monitored daily. Animals were subjected to imaging after 1.5–2 weeks of tumor growth (final tumor volume of 100–800 mm^3). Endpoints were defined as rapid weight loss up to 20% body weight, tumor volume ≥ 1000 mm^3, tumor volume < 1000 mm^3 with signs of necrosis (ulcerated surface), as well as clearly detectable apathy and pain upon touch.
# Animals used in imaging studies were sacrificed at different time points post injectionem (p.i.) after the last imaging time point by cervical dislocation under isofluorane anesthesia. Selected organs were removed and weighed, and organ activities were measured in a γ-counter. For animals in which a dual-tracer cocktail was administered, the organs were measured several times over a period of 2–3 weeks to use these datasets in specific calculation methods (Section 3.6 in the SI) to obtain the correct activity for each individual radionuclide at the start of the measurement series.
# [99mTc]Tc-PSMA-I&S or both (dual tracer cocktail) were injected into the tail vein of tumor
# xenograft-bearing female NOD SCID mice. They were sacrificed by cervical dislocation under
# isofluoran anesthesia at different time points post injectionem (p.i.) after the last imaging time
# point. Selected organs were removed, weighed and organ activities measured in a γ-counter.
# [5] = PC-3 tumor, read-out: Biodistribution: PC-3 Tumor
# [6] = bone, read-out: Biodistribution: Bone
# [7] = colon (empty), read-out: Biodistribution: Colon (empty)
# [8] = intestine (empty), read-out: Biodistribution: Intestine (empty)
# [9] = liver, read-out: Biodistribution: Liver
# [10] = muscle, read-out: Biodistribution: Muscle
# [11] = spleen, read-out: Biodistribution: Spleen
# [12] = stomach (empty), read-out: Biodistribution: Stomach (empty)
# [13] = Mouse #1, 25.1 h p.i., 1.34 nmol
# [14] = CHO-K1-GRPR tumor, Biodistribution: CHO-K1-GRPR Tumor
# [15] = CHO-K1-PSMA tumor, Biodistribution: CHO-K1-PSMA Tumor
# [16] = adrenal, Biodistribution: Adrenal
# [17] = kidney, Biodistribution: Kidney
# [18] = muscle, Biodistribution: Muscle
# [19] = pancreas, Biodistribution: Pancreas
# [20] = spleen, Biodistribution: Spleen
# [21] = stomach (empty), Biodistribution: Stomach (empty)
smiles,measurement,setting,value
"CC(C)C[C@H](NC(=O)C[C@H](O)[C@H](CC(C)C)NC(=O)[C@H](Cc1c[nH]cn1)NC(=O)CNC(=O)[C@@H](NC(=O)[C@H](C)NC(=O)[C@H](Cc1c[nH]c2ccccc12)NC(=O)[C@H](CCC(N)=O)NC(=O)[C@@H](Cc1ccccc1)NC(=O)CN1CCC(NC(=O)CN2CCN(CC(=O)O)CCN(CC(=O)O)CCN(CC(=O)O)CC2)CC1)C(C)C)C(N)=O [[^111In]In-RM2, metal not drawn]",tissue uptake at 7.3 h,[1]; [5],1.36 %ID/g
same,tissue uptake at 4 h,[1]; [5],2.75 %ID/g
same,tissue uptake at 4 h,"[1]; adrenal, read-out: Biodistribution: Adrenal",0.13 %ID/g
same,tissue uptake at 25.1 h,[1]; [6],0.07 %ID/g
same,tissue uptake at 4 h,[1]; [6],0.04 %ID/g
same,tissue uptake at 25.1 h,[1]; [7],0.04 %ID/g
same,tissue uptake at 7.3 h,[1]; [7],0.04 %ID/g
same,tissue uptake at 7.3 h,"[1]; heart, read-out: Biodistribution: Heart",0.02 %ID/g
same,tissue uptake at 25.1 h,[1]; [8],0.08 %ID/g
same,tissue uptake at 4 h,[1]; [8],0.08 %ID/g
same,tissue uptake at 7.3 h,"[1]; kidney, read-out: Biodistribution: Kidney",1.29 %ID/g
same,tissue uptake at 25.1 h,[1]; [9],0.17 %ID/g
same,tissue uptake at 7.3 h,[1]; [9],0.12 %ID/g
same,tissue uptake at 4 h,[1]; [9],0.22 %ID/g
same,tissue uptake,"[1]; mouse, PC-3 xenograft tumor, 4-25.1 h p.i., range over mice, read-out: Uptake in PC-3 xenografts",1.36 to 2.75 %ID/g
same,tissue uptake at 25.1 h,[1]; [10],0.01 %ID/g
same,tissue uptake at 7.3 h,[1]; [10],0.01 %ID/g
same,tissue uptake at 4 h,[1]; [10],0.01 %ID/g
same,tissue uptake at 25.1 h,"[1]; pancreas, read-out: Biodistribution: Pancreas",0.06 %ID/g
same,tissue uptake at 25.1 h,[1]; [11],0.16 %ID/g
same,tissue uptake at 7.3 h,[1]; [11],0.13 %ID/g
same,tissue uptake at 4 h,[1]; [11],0.1 %ID/g
same,tissue uptake at 7.3 h,[1]; [12],0.02 %ID/g
same,tissue uptake at 4 h,[1]; [12],0.09 %ID/g
same,Biodistribution: Kidney,[2]; [13],2.17 % ID/g
same,Biodistribution: PC-3 Tumor,[2]; [13],2.20 % ID/g
same,Biodistribution: Heart,"[2]; Mouse #3, 4 h p.i., 1.49 nmol",0.02 % ID/g
same,Biodistribution: Kidney,"[2]; Mouse #3, 4 h p.i., 1.49 nmol",2.20 % ID/g
same,Uptake in PC-3 xenografts,[3],6.84 ± 1.02 % ID/g
same,tissue uptake at 24.2 h,"[4]; CHO-K1-GRPR tumor, 0.37 nmol, Biodistribution: CHO-K1-GRPR Tumor, Mouse #5, 0.37 nmol",0.51 %ID/g
same,tissue uptake at 24.2 h,"[4]; CHO-K1-GRPR tumor, 0.58 nmol, Biodistribution: CHO-K1-GRPR Tumor, Mouse #4, 0.58 nmol",0.28 %ID/g
same,tissue uptake at 25.8 h,[4]; [14],0.38 %ID/g
same,tissue uptake at 25.2 h,[4]; [14],0.33 %ID/g
same,tissue uptake at 24.2 h,"[4]; CHO-K1-GRPR tumor, 1.41 nmol, Biodistribution: CHO-K1-GRPR Tumor, Mouse #7, 1.41 nmol",0.06 %ID/g
same,tissue uptake at 17.6 h,[4]; [14],0.26 %ID/g
same,tissue uptake,[4]; dual-tracer mice #8 and #9,0.26 to 0.38 %ID/g
same,tissue uptake,[4]; single-tracer mice #4–#7,0.06 to 0.51 %ID/g
same,tissue uptake at 24.2 h,"[4]; CHO-K1-PSMA tumor, 0.37 nmol, Biodistribution: CHO-K1-PSMA Tumor, Mouse #5, 0.37 nmol",0.08 %ID/g
same,tissue uptake at 25.8 h,[4]; [15],0.08 %ID/g
same,tissue uptake at 25.2 h,[4]; [15],0.09 %ID/g
same,tissue uptake at 24.2 h,"[4]; CHO-K1-PSMA tumor, 1.41 nmol, Biodistribution: CHO-K1-PSMA Tumor, Mouse #7, 1.41 nmol",0.08 %ID/g
same,tissue uptake at 17.6 h,[4]; [15],0.09 %ID/g
same,tissue uptake at 24.2 h,"[4]; adrenal, 0.37 nmol, Biodistribution: Adrenal, Mouse #5, 0.37 nmol",0.33 %ID/g
same,tissue uptake at 24.2 h,"[4]; adrenal, 0.58 nmol, Biodistribution: Adrenal, Mouse #4, 0.58 nmol",0.12 %ID/g
same,tissue uptake at 25.2 h,[4]; [16],0.16 %ID/g
same,tissue uptake at 24.2 h,"[4]; adrenal, 1.41 nmol, Biodistribution: Adrenal, Mouse #7, 1.41 nmol",0.08 %ID/g
same,tissue uptake at 17.6 h,[4]; [16],0.12 %ID/g
same,tissue uptake at 25.8 h,"[4]; blood, Biodistribution: Blood",0.02 %ID/g
same,tissue uptake at 25.2 h,"[4]; blood, Biodistribution: Blood",0.01 %ID/g
same,tissue uptake at 24.2 h,"[4]; blood, 1.41 nmol, Biodistribution: Blood, Mouse #7, 1.41 nmol",0.01 %ID/g
same,tissue uptake at 17.6 h,"[4]; blood, Biodistribution: Blood",0.02 %ID/g
same,tissue uptake at 24.2 h,"[4]; bone, 0.37 nmol, Biodistribution: Bone, Mouse #5, 0.37 nmol",0.04 %ID/g
same,tissue uptake at 24.2 h,"[4]; bone, 0.58 nmol, Biodistribution: Bone, Mouse #4, 0.58 nmol",0.04 %ID/g
same,tissue uptake at 25.8 h,"[4]; bone, Biodistribution: Bone",0.06 %ID/g
same,tissue uptake at 25.2 h,"[4]; bone, Biodistribution: Bone",0.06 %ID/g
same,tissue uptake at 24.2 h,"[4]; bone, 1.41 nmol, Biodistribution: Bone, Mouse #7, 1.41 nmol",0.04 %ID/g
same,tissue uptake at 24.2 h,"[4]; colon (empty), 0.37 nmol, Biodistribution: Colon (empty), Mouse #5, 0.37 nmol",0.08 %ID/g
same,tissue uptake at 24.2 h,"[4]; colon (empty), 0.58 nmol, Biodistribution: Colon (empty), Mouse #4, 0.58 nmol",0.04 %ID/g
same,tissue uptake at 25.8 h,"[4]; colon (empty), Biodistribution: Colon (empty)",0.04 %ID/g
same,tissue uptake at 24.2 h,"[4]; heart, 0.58 nmol, Biodistribution: Heart, Mouse #4, 0.58 nmol",0.02 %ID/g
same,tissue uptake at 24.2 h,"[4]; heart, 1.41 nmol, Biodistribution: Heart, Mouse #7, 1.41 nmol",0.02 %ID/g
same,tissue uptake at 24.2 h,"[4]; intestine (empty), 0.37 nmol, Biodistribution: Intestine (empty), Mouse #5, 0.37 nmol",0.06 %ID/g
same,tissue uptake at 24.2 h,"[4]; intestine (empty), 1.41 nmol, Biodistribution: Intestine (empty), Mouse #7, 1.41 nmol",0.04 %ID/g
same,tissue uptake at 17.6 h,"[4]; intestine (empty), Biodistribution: Intestine (empty)",0.04 %ID/g
same,tissue uptake at 24.2 h,"[4]; kidney, 0.37 nmol, Biodistribution: Kidney, Mouse #5, 0.37 nmol",1.42 %ID/g
same,tissue uptake at 24.2 h,"[4]; kidney, 0.58 nmol, Biodistribution: Kidney, Mouse #4, 0.58 nmol",1.14 %ID/g
same,tissue uptake at 25.8 h,[4]; [17],1.07 %ID/g
same,tissue uptake at 25.2 h,[4]; [17],1.69 %ID/g
same,tissue uptake at 24.2 h,"[4]; kidney, 1.41 nmol, Biodistribution: Kidney, Mouse #7, 1.41 nmol",1.34 %ID/g
same,tissue uptake at 17.6 h,[4]; [17],1.09 %ID/g
same,tissue uptake at 24.2 h,"[4]; liver, 0.37 nmol, Biodistribution: Liver, Mouse #5, 0.37 nmol",0.13 %ID/g
same,tissue uptake at 24.2 h,"[4]; liver, 0.58 nmol, Biodistribution: Liver, Mouse #4, 0.58 nmol",0.1 %ID/g
same,tissue uptake at 25.8 h,"[4]; liver, Biodistribution: Liver",0.28 %ID/g
same,tissue uptake at 25.2 h,"[4]; liver, Biodistribution: Liver",0.2 %ID/g
same,tissue uptake at 24.2 h,"[4]; liver, 1.41 nmol, Biodistribution: Liver, Mouse #7, 1.41 nmol",0.17 %ID/g
same,tissue uptake at 17.6 h,"[4]; liver, Biodistribution: Liver",0.13 %ID/g
same,tissue uptake at 25.8 h,"[4]; lung, Biodistribution: Lung",0.04 %ID/g
same,tissue uptake at 24.2 h,"[4]; lung, 1.41 nmol, Biodistribution: Lung, Mouse #7, 1.41 nmol",0.04 %ID/g
same,tissue uptake at 24.2 h,"[4]; muscle, 0.37 nmol, Biodistribution: Muscle, Mouse #5, 0.37 nmol",0.01 %ID/g
same,tissue uptake at 24.2 h,"[4]; muscle, 0.58 nmol, Biodistribution: Muscle, Mouse #4, 0.58 nmol",0.01 %ID/g
same,tissue uptake at 25.8 h,[4]; [18],0.01 %ID/g
same,tissue uptake at 25.2 h,[4]; [18],0.02 %ID/g
same,tissue uptake at 24.2 h,"[4]; muscle, 1.41 nmol, Biodistribution: Muscle, Mouse #7, 1.41 nmol",0.01 %ID/g
same,tissue uptake at 17.6 h,[4]; [18],0.01 %ID/g
same,tissue uptake at 24.2 h,"[4]; pancreas, 0.37 nmol, Biodistribution: Pancreas, Mouse #5, 0.37 nmol",0.1 %ID/g
same,tissue uptake at 24.2 h,"[4]; pancreas, 0.58 nmol, Biodistribution: Pancreas, Mouse #4, 0.58 nmol",0.07 %ID/g
same,tissue uptake at 25.8 h,[4]; [19],0.07 %ID/g
same,tissue uptake at 25.2 h,[4]; [19],0.06 %ID/g
same,tissue uptake at 24.2 h,"[4]; pancreas, 1.41 nmol, Biodistribution: Pancreas, Mouse #7, 1.41 nmol",0.04 %ID/g
same,tissue uptake at 17.6 h,[4]; [19],0.04 %ID/g
same,tissue uptake at 24.2 h,"[4]; spleen, 0.37 nmol, Biodistribution: Spleen, Mouse #5, 0.37 nmol",0.08 %ID/g
same,tissue uptake at 24.2 h,"[4]; spleen, 0.58 nmol, Biodistribution: Spleen, Mouse #4, 0.58 nmol",0.07 %ID/g
same,tissue uptake at 25.8 h,[4]; [20],0.25 %ID/g
same,tissue uptake at 25.2 h,[4]; [20],0.13 %ID/g
same,tissue uptake at 24.2 h,"[4]; spleen, 1.41 nmol, Biodistribution: Spleen, Mouse #7, 1.41 nmol",0.08 %ID/g
same,tissue uptake at 17.6 h,[4]; [20],0.1 %ID/g
same,tissue uptake at 24.2 h,"[4]; stomach (empty), 0.37 nmol, Biodistribution: Stomach (empty), Mouse #5, 0.37 nmol",0.04 %ID/g
same,tissue uptake at 25.8 h,[4]; [21],0.04 %ID/g
same,tissue uptake at 25.2 h,[4]; [21],0.04 %ID/g

# Source: PMC12298007 (Pharmaceuticals, 2025)
